From ChEMBL document CHEMBL1129926, “D4 dopamine receptor-selective compounds from the Chinese plant Phoebe chekiangensis” (Bioorg Med Chem Lett, 1997)

Experiments:
[1] = target: T1, D(4) dopamine receptor (Homo sapiens, UniProt P21917); assay: Potency was measured by the displacement of [3H]-spiperone binding to human D4 dopaminergic receptor
T1 sequence (P21917 whole entry): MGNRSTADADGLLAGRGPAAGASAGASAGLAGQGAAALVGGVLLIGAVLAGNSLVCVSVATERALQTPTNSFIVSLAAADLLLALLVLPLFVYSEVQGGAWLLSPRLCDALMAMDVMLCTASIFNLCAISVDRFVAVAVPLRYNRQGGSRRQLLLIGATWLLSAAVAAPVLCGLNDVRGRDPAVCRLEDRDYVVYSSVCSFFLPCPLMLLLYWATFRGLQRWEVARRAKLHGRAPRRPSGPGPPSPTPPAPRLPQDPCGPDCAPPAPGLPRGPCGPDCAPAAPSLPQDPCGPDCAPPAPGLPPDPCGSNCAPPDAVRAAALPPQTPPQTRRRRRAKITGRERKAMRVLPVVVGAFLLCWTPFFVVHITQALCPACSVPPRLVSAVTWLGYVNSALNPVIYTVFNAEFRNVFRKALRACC

[2] = target: T1, D(4) dopamine receptor; assay: Inhibitory concentration against binding of [3H]spiperone to human D4 dopaminergic receptor
[3] = target: D(2) dopamine receptor (Homo sapiens, UniProt P14416); assay: Inhibitory concentration against binding of [3H]spiperone to human D2 dopaminergic receptor
Chain of D(2) dopamine receptor (P14416 whole entry): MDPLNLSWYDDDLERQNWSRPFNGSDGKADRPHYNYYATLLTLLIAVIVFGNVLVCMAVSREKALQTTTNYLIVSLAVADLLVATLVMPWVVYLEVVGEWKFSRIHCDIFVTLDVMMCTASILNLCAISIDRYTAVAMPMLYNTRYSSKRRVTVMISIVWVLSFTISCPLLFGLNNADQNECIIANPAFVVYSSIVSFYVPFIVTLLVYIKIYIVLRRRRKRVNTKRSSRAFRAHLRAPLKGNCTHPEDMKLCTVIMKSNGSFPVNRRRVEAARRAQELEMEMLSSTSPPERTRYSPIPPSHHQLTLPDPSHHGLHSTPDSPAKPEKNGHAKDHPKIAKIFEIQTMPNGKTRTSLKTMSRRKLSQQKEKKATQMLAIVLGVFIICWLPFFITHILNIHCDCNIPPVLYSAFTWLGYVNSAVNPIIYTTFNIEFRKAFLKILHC

| Structure (SMILES) | Ki [1] [nM] | IC50 [2] [nM] | IC50 [3] [nM] |
| --- | --- | --- | --- |
| CN1CCc2cc(O)c(O)cc2C1Cc1ccc(O)c(O)c1 (centres undefined) | 350 |  |  |
| CC1NCCc2cc(O)c(O)cc21 (centres undefined) | 6400 |  |  |
| OC[C@H]1O[C@H](Oc2ccc(CC3NCCc4cc(O)c(O)cc43)cc2)[C@H](O)[C@H](O)[C@H]1O (some centres undefined) | 1200 | 47500 |  |
| Oc1ccc2c(c1)CCN2 | 500 | 39200 | 1030 |
| Oc1ccc(CC2NCCc3cc(O)c(O)cc32)cc1O (centres undefined) | 2500 |  |  |
| Oc1ccc(CC2NCCc3cc(O)c(O)cc32)cc1 (centres undefined) [HIGENAMINE] | 3100 |  |  |
